Reference: US20090298691A1, “METHODS AND COMPOSITIONS FOR CONTROL OF AQUATIC WEEDS USING HERBICIDAL COMBINATIONS WITH FLURIDONE” (priority 2008, published 2009)

How the values were obtained:
[1] = tested on: Lake Okahumpka hydrilla (fluridone resistant biotype); experiment: Example 2: hydrilla in 14 L cylinders, c.a. 30 days exposure, plant weights; type: in vivo, Hydrilla verticillata; settings: for biomass reduction: 6 ppb
Text: (§1) Hydrilla was collected from three sources in Florida; two representing fluridone resistant biotypes (Lake Okahumpka and Lake Cypress) and one fluridone susceptible biotypes (CAIP). Apical sections containing a single meristem were planted in small pots (13.5 cm length×3.75 cm diameter) containing potting soil and amended with Osmocote fertilizer. Each biotype were placed into 14 L cylinders and allowed to establish growth for 6-days prior to treatment. Treatments were replicated three times and included: controls, penoxsulam 6 and 12 ppb; fluridone 6 and 12 ppb; combinations of fluridone+penoxsulam (1:1 ratio) at 12 ppb (6 ppb each). Plants were exposed for c.a. 30 days and then harvested to determine plant weights.

[2] = tested on: CAIP hydrilla (fluridone susceptible biotype); experiment: as above; type: in vivo, Hydrilla verticillata; settings: 6 ppb
Text: as §1

[3] = tested on: Lake Cypress hydrilla (fluridone resistant biotype); experiment: as above; type: in vivo, Hydrilla verticillata; settings: for biomass reduction: 6 ppb
Text: as §1

[4] = tested on: jointed spikerush; experiment: Example 7: greenhouse mesocosm selectivity trial, 60-day exposure, aboveground shoot biomass; type: in vivo, Eleocharis interstincta; settings: total parts per billion, non-linear regression
Text: (§2) Five different native aquatic plants were acquired from a Florida supplier (Aquatic Plants of Florida, Sarasota, Fla.). These species were jointed spikerush (Eleocharis interstincta), spatterdock (Nuphar advena), soft-stem bulrush (Scirpus validus), and maidencane (Panicum hemitomon), and tapegrass (Vallisneria americana). The final native species in the trial—Egyptian panicgrass or Kissimmee ‘Knotgrass’ (Paspalidium geminatum)—and fluridone-resistant hydrilla were collected from West Lake Tohopekaliga (Osceola County, FL). Transplanted tissue for each native species included both young fresh shoot growth and a portion of root stock/rhizome. Hydrilla was planted as 30 cm sections of fresh apical shoot growth. All plants were transplanted into commercial retail topsoil amended with slow-release granular 14-14-14 fertilizer at rate of 2.5 g fertilizer per kg soil. Spatterdock rhizomes were transplanted into 11.4L plastic garden pots, while all other species were transplanted into 1.9-L pots. Soil in each pot was capped with a layer of sand. […]
(§3) Three weeks after transplanting, herbicide stock solutions were used to apply either fluridone or penoxsulam alone or in combination. […] Four replicate pots of each species were harvested at time of treatment to quantify pre-treatment aboveground biomass. […]

[5] = tested on: panicgrass (Egyptian panicgrass, Kissimmee 'Knotgrass'); experiment: as above; type: in vivo, Paspalidium geminatum; settings: total parts per billion, non-linear regression
Text: as §2, §3

[6] = tested on: target plant; settings: Sonar A.S. label; cited from earlier work
[7] = tested on: tapegrass; experiment: Example 7: greenhouse mesocosm selectivity trial, 60-day exposure, aboveground shoot biomass; type: in vivo, Vallisneria americana; settings: total parts per billion, non-linear regression
Text: as §2, §3

[8] = tested on: fluridone resistant hydrilla biotype (Lake Cypress); experiment: Example 3: hydrilla in 14 L cylinders, 56 days exposure, dry weights; type: in vivo, Hydrilla verticillata; settings: 3 ppb
Text: (§4) Hydrilla was collected from two sources in Florida representing a fluridone resistant biotype (Lake Cypress) and a fluridone susceptible biotype. Apical sections containing a single meristem were planted in small pots (13.5 cm length×3.75 cm diameter) containing potting soil and amended with Osmocote fertilizer. Each biotype were placed into 14 L cylinders and allowed to establish growth prior to treatment. Treatments were replicated three times and included: controls, penoxsulam or fluridone at 3 and 6 ppb; combinations of fluridone+penoxsulam (1:1 ratio) at 6 ppb (3 ppb of each). Plants were exposed for 56 days and then harvested to determine dry weights. At 14 days after treatment (DAT) net photosynthesis from exposed plant tissue was measured.

[9] = tested on: fluridone susceptible hydrilla biotype; experiment: as above; type: in vivo, Hydrilla verticillata; settings: 3 ppb
Text: as §4

[10] = tested on: Lake Okahumpka hydrilla (fluridone resistant biotype); experiment: Example 1: hydrilla in 14 L cylinders, 25 days of exposure, total stem length and fresh weight; type: in vivo, Hydrilla verticillata; settings: 12 ppb (combination 6 ppb each)
Text: (§5) Apical sections of hydrilla were collected from Rainbow River and Lake Okahumpka, Fla. Hydrilla in Lake Okahumpka is known to have developed increased tolerance to fluridone (FRH). The biotype from Rainbow River has never been exposed to fluridone and is presumably fluridone susceptible. Apical sections were planted in potting soil amended with Osmocote fertilizer in small pots (13.5 cm length×3.75 cm diameter). A 2.54 cm sand layer was placed over the top of the potting soil. Pots containing each biotype of hydrilla were placed into 14 L acrylic cylinders and allowed to establish slight growth prior to treatment. Cylinders were then treated with penoxsulam (P) or fluridone (F) at 12 ppb, and fluridone+penoxsulam (1:1 ratio) at 6 ppb (3 ppb each) and 12 ppb (6 ppb each). All treatments were replicated 4 times. After 25 days of exposure, plants were harvested and total stem length and fresh weights were measured.

[11] = tested on: soft-stem bulrush; experiment: Example 7: greenhouse mesocosm selectivity trial, 60-day exposure, aboveground shoot biomass; type: in vivo, Scirpus validus; settings: total parts per billion, non-linear regression
Text: as §2, §3

[12] = tested on: spatterdock; experiment: as above; type: in vivo, Nuphar advena; settings: total parts per billion, non-linear regression
Text: as §2, §3

[13] = tested on: Hydrilla (FR), fluridone-resistant hydrilla; experiment: as above; type: in vivo, Hydrilla verticillata; settings: total parts per billion, non-linear regression
Text: as §2, §3

[14] = tested on: maidencane; experiment: as above; type: in vivo, Panicum hemitomon; settings: total parts per billion, non-linear regression
Text: as §2, §3

[15] = tested on: hydrilla; settings: literature; cited from earlier work
[16] = tested on: hydrilla; experiment: Contact time of penoxsulam alone under operational field use; type: in vivo, Hydrilla verticillata
[17] = tested on: Rainbow River hydrilla (fluridone susceptible); experiment: Example 1: hydrilla in 14 L cylinders, 25 days of exposure, total stem length and fresh weight; type: in vivo; settings: Hydrilla verticillata, 600 h, 12 ppb (combination 6 ppb each), read-out: stem length inhibited compared to control plants
Text: as §5

[18] = tested on: Eurasian watermilfoil; experiment: Example 5: Eurasian watermilfoil in 12 L tanks, 40 day exposure, root and shoot dry weights; type: in vivo; settings: 75 ppb; 40 days
Text: Apical sections (12 to 15 cm in length) of Eurasian watermilfoil (EWM) were taken from Sweetwater Lake, Ind. and from culture and planted into small pots (13.5 cm length×3.75 cm diameter) containing Wallace Farm® topsoil amended with 14-14-14 slow release Osmocote® fertilizer (˜2.5 g Osmocote/kg soil). Approximately 5 to 7 cm of the apical section extended above the sediment at planting, and a sand cap was placed over the potting soil (˜2 cm deep). Plants were then transferred to a 12 L acrylic tanks filled with well water. Plants were allowed to grow for 7 days before the following treatment was initiated in triple replicate:
Plants were harvested at 40 days. At harvest, plants were rinsed free of algae, roots and shoots were separated, and placed in paper sacks in a drying oven for 4 days at 70° C. temperature, and dry weights were determined (FIG. 6).

Row | Compound | biomass reduction [1] | biomass reduction [2] [%] | biomass reduction [3] | Calculated EC50 on shoot biomass [4] [ppb] | Calculated EC50 on shoot biomass [5] [ppb] | Calculated EC50 on shoot biomass [7] [ppb] | reduction in biomass compared to controls [8] | reduction in biomass compared to controls [9] [%] | Calculated EC50 on shoot biomass [11] [ppb] | Calculated EC50 on shoot biomass [12] [ppb] | Calculated EC50 on shoot biomass [13] [ppb] | Calculated EC50 on shoot biomass [14] [ppb] | also measured
1 | 1-methyl-3-phenyl-5-3-(trifluoromethyl)phenyl-4(1H)-pyridinone [Fluridone] | minimal affect | 60 | minimal affect | 28.3 | 14.4 | 4.4 | no effect | ~50 | 5.3 | 2.5 | 10.1 | 4.4 | effect on biomass, in words ([1]; up to 12 ppb): generally not affected; effect on biomass, in words ([3]; up to 12 ppb): generally not affected; minimum time maintained in contact with a target plant [6]: ≥ 45 days; effect on fluridone tolerant biotype (stem length, biomass), in words [10]: little effect; stem length inhibited compared to control plants [10]: ~10%
2 | O=C(O)C1C2CCC(O2)C1C(=O)O (centres unmarked) [Endothall, 7-oxabicyclo[2.2.1]heptane-2,3-dicarboxylic acid] |  |  |  |  |  |  |  |  |  |  |  |  | contact with hydrilla to achieve effective control [15]: less than 72 hours
3 | COc1cnc(OC)n2nc(NS(=O)(=O)c3c(OCC(F)F)cccc3C(F)(F)F)nc12 [Penoxsulam] | 53% | 63 | 57% | 12.8 | 267.6 | 9.6 | ~40% | ~40 | 8.9 | 12.5 | 4.4 | 52.5 | contact time to achieve full hydrilla control [16]: greater than 4 months; inhibition at 0.012 ppm ([10]; Hydrilla verticillata, 600 h, read-out: stem length inhibited compared to control plants): ~40%; inhibition at 0.012 ppm [17]: 50 to 60%
4 | O=C(O)COc1nc(Cl)c(Cl)cc1Cl [Triclopyr, 3,5,6-trichloro-2-pyridyloxyacetic acid] |  |  |  |  |  |  |  |  |  |  |  |  | above ground biomass reduction [18]: 96%; below ground biomass reduction [18]: 74%
